Test results from patent US20090176817A1, “Method of Treatment of Diarrhea-Predominant Irritable Bowel Syndrome in a Subject” (priority 2005, published 2009).

System: healthy subjects
Assay: Study K.241.5009: esophageal visceral perception
Assay type: in vivo, human
Conditions: mean (SD); for Pressure first producing esophageal pain / Pressure first producing esophageal sensation / Volume first producing esophageal pain / Volume first producing esophageal sensation: absolute value; for Pressure first producing esophageal pain, Differences from Placebo / Pressure first producing esophageal sensation, Differences from Placebo / Volume first producing esophageal pain, Differences from Placebo / Volume first producing esophageal sensation, Differences from Placebo: not significant
Experimental: The effect of cilansetron on esophageal visceral perception was evaluated in a randomized, double-blind, placebo-controlled, 3-way crossover study in 12 male healthy subjects (ITT population), aged 32-62 years. Subjects received placebo, cilansetron 4 mg, or cilansetron 8 mg administered orally TID for 7 days during each of the 3 periods, with a 7-day washout between periods. Esophageal distension tests were done one hour after administration of the second dose on Day 7 of each treatment. A manually inflated intraesophageal balloon was used to produce distensions (successive 1 mL increases, up to a sensation of […] pain or a maximum balloon volume of 20 mL). The primary efficacy parameter was the distension volume inducing esophageal pain. Secondary parameters were the distension volumes and pressures leading to first esophageal sensation. The pain threshold and other secondary parameters for each of the cilansetron doses was compared to placebo using a one-sided Dunnett t-test.

SMILES: Cc1nccn1C[C@H]1CCc2c(c3cccc4c3n2CCC4)C1=O [Cilansetron, (R)-(−)-4,5,6,8,9,10-hexahydro-10-[(2-methyl-1H-imidazol-1-yl)methyl]-11H-pyrido-[3,2,1-jk]-carbazol-11-one]
- Pressure first producing esophageal pain (4 mg TID oral 7 days): 42.3 (11.3) mmHg
- Pressure first producing esophageal sensation (4 mg TID oral 7 days): 27.4 (9.6) mmHg
- Volume first producing esophageal pain (4 mg TID oral 7 days): 14.6 (4.3) mL
- Volume first producing esophageal sensation (4 mg TID oral 7 days): 5.3 (3.5) mL
- Pressure first producing esophageal pain, Differences from Placebo (4 mg TID oral 7 days): 3.0 (24.0) mmHg
- Pressure first producing esophageal sensation, Differences from Placebo (4 mg TID oral 7 days): −2.5 (16.4) mmHg
- Volume first producing esophageal pain, Differences from Placebo (4 mg TID oral 7 days): 1.4 (4.9) mL
- Volume first producing esophageal sensation, Differences from Placebo (4 mg TID oral 7 days): −0.3 (4.8) mL
- Pressure first producing esophageal pain (8 mg TID oral 7 days): 41.0 (12.5) mmHg
- Pressure first producing esophageal sensation (8 mg TID oral 7 days): 28.4 (10.9) mmHg
- Volume first producing esophageal pain (8 mg TID oral 7 days): 13.9 (5.8) mL
- Volume first producing esophageal sensation (8 mg TID oral 7 days): 5.2 (3.6) mL
- Pressure first producing esophageal pain, Differences from Placebo (8 mg TID oral 7 days): 1.3 (22.5) mmHg
- Pressure first producing esophageal sensation, Differences from Placebo (8 mg TID oral 7 days): −2.5 (6.9) mmHg
- Volume first producing esophageal pain, Differences from Placebo (8 mg TID oral 7 days): 0.8 (3.6) mL
- Volume first producing esophageal sensation, Differences from Placebo (8 mg TID oral 7 days): −0.5 (1.8) mL
